Reference: patent US20230287021A1, “COMPOUNDS, COMPOSITIONS AND METHODS FOR STABILIZING TRANSTHYRETIN AND INHIBITING TRANSTHYRETIN MISFOLDING” (Protego Biopharma, Inc., priority 2020, published 2023)
Counter-ions that a name gives are not always drawn.

What was measured:
[1] = In vitro rat plasma stability assay, formation of tafamidis; assay type: in vitro ADME; conditions: 37° C., 2 µM test compound
Summary of the method: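 Compound at 2 µM incubated in rat plasma at 37 °C, sampled at 0, 10, 30, 60, 120 min or 0, 60, 120, 180, 240 min. Protein precipitated, supernatant analyzed by LC-MS/MS, and percentage formation of tafamidis calculated per time point.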

[2] = In vitro rat liver S9 stability assay, formation of tafamidis; assay type: in vitro ADME; conditions: rat liver S9, 37° C., 1 µM test compound
Protocol: The test compound was added to liver S9 and incubated at 37° C. in a water bath at a concentration of 1 µM. At each time point (0, 5, 10, 20, 30 and 60 min), stop solution (tolbutamide plus labetalol) was added to precipitate protein and mixed thoroughly. After centrifugation, an aliquot of supernatant was analyzed by LC-MS/MS. The percentage of formation of active agent was calculated at each time point.

[3] = In vivo rat PK: tafamidis in plasma, CSF and brain; set-up: species or system Male Sprague-Dawley (SD) rats; conditions: for Tafamidis CSF/Plasma Ratio (iv): iv administration of test compound; for Tafamidis CSF/Plasma Ratio over 24 hrs (po): po administration of test compound
Excerpt: For a compound provided herein to be an effective TTR stabilizer drug to halt and/or prevent the ocular and cerebral TTR amyloid deposition TTR amyloidosis, it has to be able to penetrate into the brain and CSF (surrogate for eye penetration) and deliver a sufficient amount of TTR stabilizer to stop TTR dissociation. A pharmacokinetic study in rat was used to evaluate the compounds. Male Sprague-Dawley (SD) rats (200-220 g weight) were acclimated for at least 2 to 3 days before being placed on study. All animals had access to certified rodent diet and water at libitum. Appropriate amount of the test compound was accurately weighed and mixed with appropriate volume of vehicle (such as DMSO/sterile water for iv dosing or 0.5% methylcellulose homogenous suspension or solution for oral administration or as a solution in a mixture NMP/PEG400/solutol/water) to administer a dose of 2, 5 or 10 mg/kg. For IV dosing the test compound was administered via tail vein or indwelling cannula. For oral dosing, the test compound was administered by oral gavage. Blood and CSF samples were collected at selected timepoints. Blood collection was performed from saphenous vein or tail vein of each animal into polypropylene tubes at each timepoint. All blood samples were transferred into EDTA-K2 tubes and centrifuged for 15 minutes at 4° C. for plasma collection. Plasma samples were kept at -80° C. until LC/MSMS analysis. CSF was collected from cisterna magna at each timepoint and quick frozen over dry ice and kept at -80° C. until LC/MSMS analysis. Brains were harvested immediately after the terminal bleeding (~ 24 hrs post dosing). The blood of the brain was perfused with normal saline. The brain was quickly picked and placed into centrifuge tube. The weight of brain samples was recorded. 4-Fold homogenization solution (MeOH/15 mM PBS (1:2)) was added into the tube according to the weighed samples. The brain was homogenized using a Polytron (3 strokes or more until homogenous, each 30 seconds) on wet ice. The samples were quick frozen over dry ice and kept at -80° C. until LC/MSMS analysis. Using a LC-MSMS method for the quantitative determination of test compound in biological matrixes, amount of test compound and active agent were measured in plasma and CSF at selected timepoints post-dosing and in brain at 24 hrs post dosing. Plasma concentration versus time data was analyzed by non-compartmental approaches using the Phoenix WinNonlin 6.3 software program. As reference, an oral dose of 2 mg/kg of tafamidis gave a CSF to plasma ratio over 24 hrs around 0.01 and a brain to plasma ratio at 24 hrs around 0.02.

| Formation of tafamidis at 120 min [1] | Formation of tafamidis at 60 min [2] | Tafamidis CSF/Plasma Ratio (iv) [3] | Tafamidis CSF/Plasma Ratio over 24 hrs (po) [3] | SMILES |
| --- | --- | --- | --- | --- |
| D (D is ≥75%) | A (A is <25%) |  | A (A is < 0.015) | CC(CN(C)C)OC(=O)c1ccc2nc(-c3cc(Cl)cc(Cl)c3)oc2c1 (single isomer, unassigned) [Compound 47, (R*)-1-(dimethylamino)propan-2-yl 2-(3,5-dichlorophenyl)benzo [d] oxazole-6-carboxylate] |
| A (A is <25%) | A (A is <25%) | B (B is ≥0.015 to <0.02) |  | CN(C)CCCOC(=O)c1ccc2nc(-c3cc(Cl)cc(Cl)c3)oc2c1 [Compound 1, 3-(Dimethylamino)propyl 2-(3,5-dichlorophenyl)benzo[d]oxazole-6-carboxylate] |
| D (D is ≥75%) | A (A is <25%) | C (C is ≥0.02) | C (C is ≥0.02) | CN1CCC(OC(=O)c2ccc3nc(-c4cc(Cl)cc(Cl)c4)oc3c2)C1 (stereo not shown) [Compound 7, 1-methylpyrrolidin-3-yl 2-(3,5-dichlorophenyl)benzo[d]oxazole-6-carboxylate] |
| A (A is <25%) | A (A is <25%) | B (B is ≥0.015 to <0.02) | B (B is ≥0.015 to <0.02) | O=C(OC1CCNCC1)c1ccc2nc(-c3cc(Cl)cc(Cl)c3)oc2c1 [Compound 13, hydrochloride] |
| A (A is <25%) |  | B (B is ≥0.015 to <0.02) |  | CN1CCC(OC(=O)c2ccc3nc(-c4cc(Cl)cc(Cl)c4)oc3c2)C(F)(F)C1 (stereo not shown) [Compound 14, 3,3-difluoro-1-methylpiperidin-4-yl 2-(3,5-dichlorophenyl) benzo [d]oxazole-6-carboxylate] |
| A (A is <25%) |  | B (B is ≥0.015 to <0.02) |  | N[C@@H](Cc1ccc(OC(=O)c2ccc3nc(-c4cc(Cl)cc(Cl)c4)oc3c2)cc1)C(=O)O [Compound 23, (S)-2-amino-3-(4-((2-(3,5-dichlorophenyl)benzo[d]oxazole-6-carbonyl)oxy)phenyl)propanoic acid hydrochloride] |
| A (A is <25%) |  | A (A is <0.015) |  | N[C@@H](Cc1cccc(OC(=O)c2ccc3nc(-c4cc(Cl)cc(Cl)c4)oc3c2)c1)C(=O)O [Compound 28, (S)-2-amino-3-(3-((2-(3,5-dichlorophenyl)benzo[d]oxazole-6-carbonyl)oxy)phenyl) propanoic acid hydrochloride] |
| C (C is ≥50 to <75%) | B (B is ≥25 to <50%) | B (B is ≥0.015 to <0.02) |  | CCN(CC)CCOC(=O)c1ccc2nc(-c3cc(Cl)cc(Cl)c3)oc2c1 [Compound 35, 2-(diethylamino)ethyl 2-(3,5-dichlorophenyl)benzo[d]oxazole-6-carboxylate hydrochloride] |
| B (B is ≥25 to <50%) |  | A (A is <0.015) |  | CCN(C)CCCOC(=O)c1ccc2nc(-c3cc(Cl)cc(Cl)c3)oc2c1 [Compound 48, 3-(ethyl(methyl)amino)propyl 2-(3,5-dichlorophenyl)benzo[d] oxazole-6-carboxylate hydrochloride] |
|  | A (A is <25%) |  | A (A is < 0.015) | CN(C)[C@H]1CCC[C@@H]1OC(=O)c1ccc2nc(-c3cc(Cl)cc(Cl)c3)oc2c1 [Compound 116] |
| D (D is ≥75%) | D (D is ≥75%) |  |  | Cn1ccnc1CCOC(=O)c1ccc2nc(-c3cc(Cl)cc(Cl)c3)oc2c1 [Compound 177] |
| B (B is ≥25 to <50%) | C (C is ≥50 to <75%) |  |  | N#CCCN1CCC(OC(=O)c2ccc3nc(-c4cc(Cl)cc(Cl)c4)oc3c2)C1 (stereo not shown) [Compound 179] |
| B (B is ≥25 to <50%) | A (A is <25%) |  |  | O=C(OC1CCN2CCCC12)c1ccc2nc(-c3cc(Cl)cc(Cl)c3)oc2c1 (stereo not shown) [Compound 180, Hexahydro-1H-pyrrolizin-1-yl 2-(3,5-dichlorophenyl)benzo[d]oxazole-6-carboxylate] |
| A (A is <25%) | A (A is <25%) |  |  | CCNC(=O)c1ccc2nc(-c3cc(Cl)cc(Cl)c3)oc2c1 [Compound 183] |

More lines, now with the values behind:

| SMILES | Formation of tafamidis at 120 min [1] | Formation of tafamidis at 60 min [2] | Tafamidis CSF/Plasma Ratio (iv) [3] | Tafamidis CSF/Plasma Ratio over 24 hrs (po) [3] |
| --- | --- | --- | --- | --- |
| CC(CN(C)C)OC(=O)c1ccc2nc(-c3cc(Cl)cc(Cl)c3)oc2c1 (single isomer, unassigned) [Compound 46, (S*)-1-(dimethylamino)propan-2-yl 2-(3,5-dichlorophenyl)benzo[d]oxazole-6-carboxylate] | B (B is ≥25 to <50%) | A (A is <25%) | C (C is ≥0.02) | A (A is < 0.015) |
| CN1CCC(OC(=O)c2ccc3nc(-c4cc(Cl)cc(Cl)c4)oc3c2)CC1 [Compound 11] | A (A is <25%) | A (A is <25%) | B (B is ≥0.015 to <0.02) | A (A is < 0.015) |
| O=C(OCCN1CCC1)c1ccc2nc(-c3cc(Cl)cc(Cl)c3)oc2c1 [Compound 36, 2-(azetidin-1-yl)ethyl 2-(3,5-dichlorophenyl)benzo[d]oxazole-6-carboxylate] | C (C is ≥50 to <75%) |  | A (A is <0.015) |  |
| CC(CCN(C)C)OC(=O)c1ccc2nc(-c3cc(Cl)cc(Cl)c3)oc2c1 (stereo not shown) [Compound 49, 4-(dimethylamino)butan-2-yl 2-(3,5-dichlorophenyl)benzo[d] oxazole-6-carboxylate hydrochloride] | C (C is ≥50 to <75%) |  | C (C is ≥0.02) |  |
| CC(COC(=O)c1ccc2nc(-c3cc(Cl)cc(Cl)c3)oc2c1)CN(C)C (stereo not shown) [Compound 50, 3-(dimethylamino)-2-methylpropyl 2-(3,5-dichlorophenyl) benzo [d] oxazole-6-carboxylate] | A (A is <25%) |  | A (A is <0.015) |  |
| CC(CN1CCOCC1)OC(=O)c1ccc2nc(-c3cc(Cl)cc(Cl)c3)oc2c1 (stereo not shown) [Compound 143] |  | B (B is ≥25 to <50%) |  | A (A is < 0.015) |
| O=C(OC1CCc2nccn2C1)c1ccc2nc(-c3cc(Cl)cc(Cl)c3)oc2c1 (stereo not shown) [Compound 157, 5,6,7,8-tetrahydroimidazo[1,2-a]pyridin-6-yl 2-(3,5-dichlorophenyl)benzo[d]oxazole-6-carboxylate hydrochloride] | B (B is ≥25 to <50%) | A (A is <25%) |  |  |
| CN1CC(OC(=O)c2ccc3nc(-c4cc(Cl)cc(Cl)c4)oc3c2)C(F)(F)C1 (stereo not shown) [Compound 175] | D (D is ≥75%) | D (D is ≥75%) |  |  |
| N#CCN1CCC(OC(=O)c2ccc3nc(-c4cc(Cl)cc(Cl)c4)oc3c2)C1 (stereo not shown) [Compound 176] | C (C is ≥50 to <75%) | D (D is ≥75%) |  |  |
| CC(CCn1ccnc1)OC(=O)c1ccc2nc(-c3cc(Cl)cc(Cl)c3)oc2c1 (stereo not shown) [Compound 178, 4-(1H-imidazol-1-yl)butan-2-yl 2-(3,5-dichlorophenyl)-benzo [d] oxazole-6-carboxylate] | C (C is ≥50 to <75%) | C (C is ≥50 to <75%) |  |  |
| CC1CCC(OC(=O)c2ccc3nc(-c4cc(Cl)cc(Cl)c4)oc3c2)C1 (stereo not shown) [Compound 185] | A (A is <25%) | B (B is ≥25 to <50%) |  |  |
